Laboratory results: US20260315468A1, “PHARMACEUTICAL COMPOSITION AND USE THEREOF” (SHANGHAI ALLIST PHARMACEUTICAL CO., LTD., priority 2022, published 2026)

Tests used:
[1] = tested on: 18 Ba/F3 EGFR mutant cell lines; experiment: Anti-proliferation effect on 18 cell lines (overall result in words); assay type: cell-based; conditions: all 18 Ba/F3 EGFR mutant cell lines of Table 1
Excerpt: The objective of the test example 1 was to evaluate the anti-proliferation effect of Furmonertinib mesilate on 18 cell lines (Ba/F3 EGFR-G719S, Ba/F3 EGFR-S768I, Ba/F3 EGFR-G724S, Ba/F3 EGFR-L718Q, Ba/F3 EGFR-Del19/G724S, Ba/F3 EGFR-E709H, Ba/F3 EGFR-L747S, Ba/F3 EGFR-E709V, Ba/F3 EGFR-L747V, Ba/F3 EGFR-E709-710>D, Ba/F3 EGFR-E709A, Ba/F3 EGFR-Del19/C797S, Ba/F3 EGFR-L858R/C797S, Ba/F3 EGFR-L747S/G719A, Ba/F3-EGFR-L858R-L718V, Ba/F3-EGFR-L858R-L718Q, Ba/F3-EGFR-E709K-G719A, and Ba/F3 EGFR-L861Q) using standard CellTiter-Glo® Luminescent Cell Viability Assay. Further, AZD9291 was used as control compound. […]
The cells during the logarithmic growth period were harvested and counted by using blood counting chamber. The cell viability was over 90% which was determined by trypan blue assay. […]
On Day 3, CellTiter-Glo® reagent (a luciferase ATP bioluminescence detection reagent) was thawed, and then the cell plate was equilibrated at room temperature for approximately 30 minutes. […] The luminescence was recorded by using Multi-mode Microplate Reader. […]

[2] = tested on: Ba/F3-EGFR-E709K-G719A; experiment: Anti-proliferation, CellTiter-Glo Luminescent Cell Viability Assay; assay type: cell-based; conditions: 72 h, 3 days
Excerpt: (§1) The objective of the test example 1 was to evaluate the anti-proliferation effect of Furmonertinib mesilate on 18 cell lines (Ba/F3 EGFR-G719S, Ba/F3 EGFR-S768I, Ba/F3 EGFR-G724S, Ba/F3 EGFR-L718Q, Ba/F3 EGFR-Del19/G724S, Ba/F3 EGFR-E709H, Ba/F3 EGFR-L747S, Ba/F3 EGFR-E709V, Ba/F3 EGFR-L747V, Ba/F3 EGFR-E709-710>D, Ba/F3 EGFR-E709A, Ba/F3 EGFR-Del19/C797S, Ba/F3 EGFR-L858R/C797S, Ba/F3 EGFR-L747S/G719A, Ba/F3-EGFR-L858R-L718V, Ba/F3-EGFR-L858R-L718Q, Ba/F3-EGFR-E709K-G719A, and Ba/F3 EGFR-L861Q) using standard CellTiter-Glo® Luminescent Cell Viability Assay. Further, AZD9291 was used as control compound.
(§2) Cell culture: Ba/F3 EGFR-G719S, Ba/F3 EGFR-S768I, Ba/F3 EGFR-G724S, Ba/F3 EGFR-L718Q, Ba/F3 EGFR-Del19/G724S, Ba/F3 EGFR-E709H, Ba/F3 EGFR-L747S, Ba/F3 EGFR-E709V, Ba/F3 EGFR-L747V, Ba/F3 EGFR-E709-710>D, Ba/F3 EGFR-E709A, Ba/F3 EGFR-Del19/C797S, Ba/F3 EGFR-L858R/C797S, Ba/F3 EGFR-L747S/G719A, Ba/F3-EGFR-L858R-L718V, Ba/F3-EGFR-L858R-L718Q, Ba/F3-EGFR-E709K-G719A, and Ba/F3 EGFR-L861Q engineered cells were obtained from Kyinno, and maintained at 37° C. with 5% CO2, in the RPMI1640 media supplemented with 10% fetal bovine serum.
(§3) The cells during the logarithmic growth period were harvested and counted by using blood counting chamber. The cell viability was over 90% which was determined by trypan blue assay. The cell concentration was adjusted with culture medium. 90 μl cell suspensions was added to two 96-well plates to obtain the final cell density of 3000 cells per well. The plates were incubated in humidified incubator at 37° C. with 5% CO2.
(§4) The solution of tested compounds (Furmonertinib mesilate and AZD9291) was diluted 1000-fold with DMSO. Then, said DMSO solution was diluted 100-fold with PBS (Phosphate Buffered Saline) to obtain 10× working solution. And 10× reference control solution was prepared by Phosphate Buffered Saline (PBS). 10 μl working solution (10×) was dispensed to each well (triplicate for each concentration). (The top concentration was 3160 nM, 3.16-fold dilution and 10 different concentrations. The final concentration of DMSO in culture medium was 0.1% [v/v]). The plate was cultured for 3 days.
(§5) On Day 3, CellTiter-Glo® reagent (a luciferase ATP bioluminescence detection reagent) was thawed, and then the cell plate was equilibrated at room temperature for approximately 30 minutes. 100 μl CellTiter-Glo® Reagent which was equal to the volume of cell culture medium present in each well was added. The obtained content was mixed for 5 minutes on an orbital shaker to induce cell lysis. The cell plate was incubated at room temperature for 20 minutes to stabilize luminescent signal. The luminescence was recorded by using Multi-mode Microplate Reader.
(§6) [formula] • blank control: medium control; • vehicle control: culture medium with 0.1% DMSO
(§7) The graphical curves were fitted using a nonlinear regression model with a sigmoidal dose response.

[3] = tested on: Ba/F3 EGFR-L747S; experiment: as above; assay type: cell-based; conditions: Mus musculus, BaF3, 72 h, 3 days
Excerpt: as §1, §2, §3, §4, §5, §6, §7

[4] = tested on: Ba/F3 EGFR-L718Q; experiment: as above; assay type: cell-based; conditions: Mus musculus, BaF3, 72 h, 3 days
Excerpt: as §1, §2, §3, §4, §5, §6, §7

[5] = tested on: Ba/F3 EGFR-L747S/G719A; experiment: as above; assay type: cell-based; conditions: Mus musculus, BaF3, 72 h, 3 days
Excerpt: as §1, §2, §3, §4, §5, §6, §7

[6] = tested on: Ba/F3 EGFR-E709A; experiment: as above; assay type: cell-based; conditions: Mus musculus, BaF3, 72 h, 3 days
Excerpt: as §1, §2, §3, §4, §5, §6, §7

[7] = tested on: Ba/F3-EGFR-L858R-L718Q; experiment: as above; assay type: cell-based; conditions: 72 h, 3 days
Excerpt: as §1, §2, §3, §4, §5, §6, §7

[8] = tested on: Ba/F3 EGFR-Del19/C797S; experiment: as above; assay type: cell-based; conditions: Mus musculus, BaF3, 72 h, 3 days
Excerpt: as §1, §2, §3, §4, §5, §6, §7

[9] = tested on: Ba/F3-EGFR-L858R-L718V; experiment: as above; assay type: cell-based; conditions: 72 h, 3 days
Excerpt: as §1, §2, §3, §4, §5, §6, §7

[10] = tested on: Ba/F3 EGFR-E709H; experiment: as above; assay type: cell-based; conditions: Mus musculus, BaF3, 72 h, 3 days
Excerpt: as §1, §2, §3, §4, §5, §6, §7

[11] = tested on: Ba/F3 EGFR-G719S; experiment: as above; assay type: cell-based; conditions: Mus musculus, BaF3, 72 h, 3 days
Excerpt: as §1, §2, §3, §4, §5, §6, §7

[12] = tested on: Ba/F3 EGFR-E709-710 > D; experiment: as above; assay type: cell-based; conditions: Mus musculus, BaF3, 72 h, 3 days
Excerpt: as §1, §2, §3, §4, §5, §6, §7

[13] = tested on: Ba/F3 EGFR-L858R/C797S; experiment: as above; assay type: cell-based; conditions: Mus musculus, BaF3, 72 h, 3 days
Excerpt: as §1, §2, §3, §4, §5, §6, §7

[14] = tested on: Ba/F3 EGFR-G724S; experiment: as above; assay type: cell-based; conditions: Mus musculus, BaF3, 72 h, 3 days
Excerpt: as §1, §2, §3, §4, §5, §6, §7

[15] = tested on: Ba/F3 EGFR-L861Q; experiment: as above; assay type: cell-based; conditions: Mus musculus, BaF3, 72 h, 3 days
Excerpt: as §1, §2, §3, §4, §5, §6, §7

[16] = tested on: Ba/F3 EGFR-Del19/G724S; experiment: as above; assay type: cell-based; conditions: Mus musculus, BaF3, 72 h, 3 days
Excerpt: as §1, §2, §3, §4, §5, §6, §7

[17] = tested on: Ba/F3 EGFR-L747V; experiment: as above; assay type: cell-based; conditions: Mus musculus, BaF3, 72 h, 3 days
Excerpt: as §1, §2, §3, §4, §5, §6, §7

[18] = tested on: Ba/F3 EGFR-S768I; experiment: as above; assay type: cell-based; conditions: Mus musculus, BaF3, 72 h, 3 days
Excerpt: as §1, §2, §3, §4, §5, §6, §7

[19] = tested on: Ba/F3 EGFR-E709V; experiment: as above; assay type: cell-based; conditions: Mus musculus, BaF3, 72 h, 3 days
Excerpt: as §1, §2, §3, §4, §5, §6, §7

[20] = Body weight and safety in the Ba/F3 EGFR-G724S xenograft model; assay type: in vivo, B-NDG mice; conditions: 15, 30 and 50 mg/kg, orally, once per day, two weeks
Excerpt: (§8) This study was used for evaluate the anti-tumor efficacy of furmonertinib mesilate in the female (B-NDG) immune deficiency mice bearing tumors of Ba/F3 EGFR-G724S engineered cells.
(§9) Experimental animals: B-NDG mice, female, 6-8 weeks, and weighing 18-20 g.
(§10) Animal modeling and random grouping: Ba/F3 EGFR-G724S cells were cultivated, cells were collected, and re-suspended and counted in serum-free medium, the re-suspended cells with the addition of a matrigel at 1:1 were subcutaneous inoculated at 1×10^6 cells/0.1 mL in B-NDG mice. When the average tumor volume was about 80-120 mm^3, the animals were randomly grouped into four experiment groups according to the tumor size. Each group contained 12 mice. The grouping day was defined as Day 0, i.e., D0.
The experimental scheme: B-NDG mice were subcutaneously inoculated with Ba/F3 EGFR-G724S cells to establish a cell-line-derived xenograft model. […] During the whole experiment, the body weight and the tumor sizes of the mice were measured twice each week, and whether or not the presence of toxic reactions was observed. […]

[21] = orally, once per day, 20 mg-240 mg; cited from earlier work
[22] = tested on: EGFR T790M positive advanced non-small cell lung cancer; conditions: oral, 80 mg daily dose; patients progressed after prior systematic anti-tumor therapy; cited from earlier work
[23] = tested on: Ba/F3 EGFR-G724S; experiment: Anti-tumor effect in Ba/F3 EGFR-G724S (KC-1385) cell xenograft model; assay type: in vivo, B-NDG mice; conditions: orally, once per day, two weeks
Excerpt: as §8, §9, §10
The experimental scheme: B-NDG mice were subcutaneously inoculated with Ba/F3 EGFR-G724S cells to establish a cell-line-derived xenograft model. The experiment was divided into 15 mg/kg group of furmonertinib mesilate, 30 mg/kg group of furmonertinib mesilate, 50 mg/kg group of furmonertinib mesilate and vehicle group, wherein each group contained 12 animals, orally administered with the administration volume of 10 uL/g, and the vehicle group was administered with the same amount of vehicle, the administration was carried out once per day and lasted for two weeks. During the whole experiment, the body weight and the tumor sizes of the mice were measured twice each week, and whether or not the presence of toxic reactions was observed.
Tumor Volume (TV) was calculated by: TV=0.5*a*b^2, where a was the long diameter of the tumor and b was the short diameter of the tumor.
The curves for the tumor volume change of four experimental groups were shown in FIG. 1, and the curves for the body weight change of four experimental groups were shown in FIG. 2.

IC50 [2]: 0.039 µM
IC50 [3]: 0.015 µM
IC50 [4]: 0.501 µM
IC50 [5]: 0.0165 µM
IC50 [6]: 0.0179 µM
IC50 [7]: 0.289 µM
IC50 [8]: 1.22 µM
IC50 [9]: 0.0239 µM
IC50 [10]: 0.0313 µM
IC50 [11]: 0.0121 µM
IC50 [12]: 0.0896 µM
IC50 [13]: 2.21 µM
IC50 [14]: 0.0213 µM
IC50 [15]: 0.0038 µM
IC50 [16]: 0.00384 µM
IC50 [17]: 0.0316 µM
IC50 [18]: 0.0216 µM
IC50 [19]: 0.0143 µM
Compound: C=CC(=O)Nc1cc(Nc2nccc(-c3cn(C)c4ccccc34)n2)c(OCC(F)(F)F)nc1N(C)CCN(C)C [Furmonertinib mesilate]
anti-proliferation effect [1]: good anti-proliferation effect
effect on the body weight of mice [20]: little effect on the body weight of mice
safety [20]: good safety
adverse events of subjects [21]: mild or moderate
dose-related toxic reaction [21]: does not occur
tolerance and safety [21]: the tolerance and the safety are good
anti-tumor effect [22]: relatively good anti-tumor effect
disease progression [22]: can alleviate or stabilize the disease progression
anti-tumor activity ([23]; 15 mg/kg): moderate anti-tumor activity
anti-tumor activity ([23]; 30 mg/kg): extremely significant anti-tumor activity
anti-tumor activity ([23]; 50 mg/kg): extremely significant anti-tumor activity
